Measurements published in paper PMC4078884 (Chemical science (Royal Society of Chemistry : 2010), 2014).

Experiments:
EcIspG = target: T1, EcIspG (Escherichia coli, UniProt P62620); assay: CW-EPR; type: binding; conditions: 80 eq dithionite, 8 K
T1 sequence (P62620 1-372): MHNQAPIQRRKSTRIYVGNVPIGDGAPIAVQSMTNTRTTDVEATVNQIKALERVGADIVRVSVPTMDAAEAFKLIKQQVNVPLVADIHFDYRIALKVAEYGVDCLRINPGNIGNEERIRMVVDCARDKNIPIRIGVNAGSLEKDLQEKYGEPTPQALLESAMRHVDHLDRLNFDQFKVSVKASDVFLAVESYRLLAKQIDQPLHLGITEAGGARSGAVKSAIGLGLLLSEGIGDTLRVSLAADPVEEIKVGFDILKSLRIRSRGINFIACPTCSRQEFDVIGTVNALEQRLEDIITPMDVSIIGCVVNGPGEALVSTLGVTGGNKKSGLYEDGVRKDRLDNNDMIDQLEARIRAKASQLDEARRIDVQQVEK

PaIspG = target: T2, PaIspG (Pseudomonas aeruginosa, UniProt Q9HXJ4); assay: CW-EPR; type: binding; conditions: 80 eq dithionite, 8 K
T2 sequence (Q9HXJ4 1-371): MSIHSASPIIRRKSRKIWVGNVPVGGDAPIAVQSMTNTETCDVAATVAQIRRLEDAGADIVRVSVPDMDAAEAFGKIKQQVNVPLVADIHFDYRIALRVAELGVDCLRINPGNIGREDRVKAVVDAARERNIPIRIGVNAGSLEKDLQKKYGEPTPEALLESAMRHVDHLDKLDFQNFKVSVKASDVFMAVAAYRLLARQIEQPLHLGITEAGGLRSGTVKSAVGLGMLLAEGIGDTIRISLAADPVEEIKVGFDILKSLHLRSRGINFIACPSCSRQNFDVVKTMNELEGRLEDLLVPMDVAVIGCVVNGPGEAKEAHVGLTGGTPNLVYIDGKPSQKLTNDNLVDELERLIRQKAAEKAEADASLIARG

C/C(=C\COP(=O)(O)OP(=O)(O)O)CS [compound 8, thiolo-HMBPP]
CW-EPR (EcIspG): E. coli (A, D)
CW-EPR (PaIspG): P. aeruginosa (B, E)
